Data on one compound can be found in BindingDB's records for patent US12110286 (Cancer Research Technology, 2024).

The assay deals with B-cell lymphoma 6 protein (Homo sapiens, UniProt P41182). Briefly: HTRF In Vitro Assay. The procedure:
The % inhibition at each concentration was calculated by normalising FRET ratio to the appropriate high (DMSO with all reagents) and low (DMSO without BCL6) controls.
In general terms: Time-resolved FRET reads energy transfer from a long-lived donor to a nearby acceptor.

The compound `Cn1c(=O)n(CCC(C)(C)O)c2cc(Nc3nc(N4CCC(Cn5cccn5)CC4)ncc3Cl)ccc21` [US12110286, Example 35zb] gave an IC50 of 324 nM.

One may read the IC50 as the midpoint of a concentration-inhibition curve. A low value points to inhibition by little substance.
